In patent US20260284016A1, “COMBINATIONS AND METHODS FOR ENHANCING CHECKPOINT INHIBITOR THERAPIES IN CANCER TREATMENT” (PURDUE RESEARCH FOUNDATION, priority 2004, published 2026):

What was measured:
[1] = tested on: M2-induced THP-1 macrophages; test: Reprogramming of M2-polarized THP-1 macrophages, marker mRNA by qPCR; format: cell-based, human; settings: 2 hours with compound, qPCR
Method: THP-1 cells were seeded into 96-well plates at a density of 60,000 cells/well. Cells were differentiated into unpolarized macrophages by 48 hours incubation with 200 nM PMA followed by 24 hours incubation in fresh RPMI medium. […] Cultures were maintained at 37° C., in a humidified 5% CO2 incubator.
Total RNA was isolated from 1×10^5-2×10^5 macrophages using a Quick-RNA™ MicroPrep kit (Zymo Research, Irvine, CA) according to the manufacturer-recommended protocol. The RNA samples were then reverse-transcribed into cDNA using high-capacity cDNA reverse transcription kits (Applied Biosystems, Foster City, CA; #4368814), qPCR analyses were performed using the iTaq™ Universal SYBR Green SuperMix (Bio-Rad Laboratories GmbH, Hercules, CA; #1725121), iCycler thermocycler, and iCycler iQ 3.0 software (Bio-Rad Laboratories GmbH, Hercules, CA) to track the expression of markers characteristic of macrophage polarization states, IL-6, CXCL10, IFNα, IFN-γ and CD86 were used as markers for an M1 phenotype, while CCL18. CD206, CD163 and Arg1 were employed as markers for the M2 phenotype, IL-1β, PDGFβ, MMP9 and TIMP 3 were measured as indicators of an anti-inflammatory phenotype. IRAK-4 was used as an indicator of TLR7 stimulation. To control for specificity of the amplification products, a melting curve analysis was performed. […] Each sample was analyzed independently in triplicate for each marker.
In both data sets, the cells were harvested for gene analysis by qPCR.
Primarily, human monocytic (THP-1) cells were induced to the M2-like phenotype using the methods and materials previously described. In particular, THP-1 cells were seeded into 96-well plates at a density of 60,000 cells/well. Cells were differentiated into unpolarized macrophages by 48 h incubation with 200 nM PMA followed by 24 hours incubation in fresh RPMI medium. The resulting macrophages were polarized to an M2-like phenotype by incubation with […] IL-4, 20 ng/ml […], and 5 ng/mL IL-6 for 48h. Cultures were maintained at 37° C. in a humidified 5% CO2 incubator.
In addition to the nonconjugated TLR7 agonist, conjugated compounds of the present disclosure were likewise evaluated. Human THP-1 cells were induced to macrophages having the M2-like phenotype per the methods set forth herein (e.g., using 20 ng/mL IL-4, 20 ng/mL IL-13, 5 ng/mL IL-6), then reprogrammed with different nM concentrations of various compounds of the present disclosure for 2 hours; namely, a nonconjugated (free drug) TLR7 agonist compound having formula I and/or II (data shown collectively as Compound 3A), a folate-conjugated TLR7 agonist compound having formula XV (having a releasable linker) (e.g., Compound 3B), a folate-conjugated TLR7 agonist compound having formula XVII (having a non-releasable linker) (e.g., Compound 3C), and a folate-conjugated TLR7 agonist compound having formula XVI (having a non-releasable linker) (e.g., Compound 3D). The cells were subsequently harvested for gene analysis by qPCR and the relative expression of CCL18 (FIG. 14A), CD206 (FIG. 14B), and IL-1β (FIG. 14C) analyzed.

[2] = tested on: M2-induced THP-1 macrophages; test: Secreted CCL18 and IL-1β in THP-1 supernatants by ELISA; format: cell-based, human; settings: low concentration range (0.1-10 nM), ELISA
Method: FIGS. 6A-6D show graphical data representative of various marker levels measured from M2-induced THP-1 macrophages treated with different concentrations of drugs for 48 hours (FIGS. 6A and 6B) or for 2 hours, then displaced with fresh medium and cultured for the remaining 46 hours (FIGS. 6C and 6D). In both cases, cell supernatants were collected and secreted CCL18 protein and IL-1β was detected by ELISA.
Further, to ensure that the above mRNA analyses accurately reflected the levels of anti-inflammatory cytokines produced by IL-4, IL-6 plus IL-13 stimulated THP-1 cells, the concentrations of CCL18 and IL-1β polypeptides in the THP-1 supernatants were quantitated by ELISA assay.
CCL18 and IL-1β were quantified in induced THP-1 cell supernatants using a human DuoSet ELISA Development System (R&D Systems Europe, Abingdon, UK: #DY394-05) and an IL-1 beta Human ELISA Kit (Thermo Fisher Scientific, Waltham, MA; #BMS224-2) as described by manufactures. BALF samples were analyzed for mouse IFN-γ using ELISA MAX™ Deluxe (Biolegend, San Diego, CA; #430804).
Additionally, cell supernatants were collected and secreted CCL18 protein was detected by ELISA.

BM-induced mice = tested on: BM-induced mice
Method: Studies were also performed to determine if macrophages in pulmonary fibrotic lungs might be specifically targeted with folate-linked drugs in vivo. […] (The BM model is widely regarded to be helpful in terms of enabling mechanistic investigations relevant to fibrogenesis in an in vivo context.)
More specifically, eight-week-old C57BL6 male mice from Charles River (average weight 22 g to 25 g) were housed under pathogen-free conditions at room temperature (22° C.) under a 12 hours light-dark cycle. Mice were placed on a folate deficient chow (Envigo Teklad Global Rat Food Pellets) for 1 week prior to the BM or PBS instillation. Fresh water and folate-deficient diet were freely available. All animal procedures were approved by the Purdue Animal Care and Use Committee in accordance with National Institute of Health guidelines.
Thereafter, the mice were anesthetized with ketamine/xylazine and the necks of the mice were shaved using hair remover lotion and then sterilized with 70% alcohol. A small incision was made on the neck to visualize the trachea. Mice were positioned at a 75-degree angle and injected intratracheally with 100 μL sterile PBS or BM (Cayman Chemicals, Ann Arbor, MI; #13877) dissolved in PBS (0.75 mg/kg) using a 1 cc syringe with 26 G needle. Body weights were monitored every other day throughout the experiment.
Lobes of the right lung collected above were weighed, placed in a pressure-tight vial (Supelco Inc., Bellefonte, PA; #27003), and hydrolyzed with 6N HCl (10 ml/g, v/w) in a sand bath at 120° C., for 3.5 hours. The hydrolyzed solution was cooled at 4° C., for 15 min and transferred to a 1.5 ml Eppendorf tube prior to centrifugation at 12,000 rcf for 15 min at 4° C. Supernatant was carefully collected, aliquoted and used for hydroxyproline (HYP) analysis.
For the subsequent HYP analysis, 10 μl of sample was transferred into a 96-well plate and neutralized with 10 μl of 5.3 M sodium hydroxide solution. Isopropanol ([…]) was then added to each well followed by 20 μl of oxidation buffer and the mixture was incubated on a shaker at room temperature for 5 min. Analytical reagent (260 μl) was added, and the plate was incubated on a shaker at room temperature for 30 seconds and incubated immediately at 60° C., for 25 min. The absorbance was measured at 560 nm (A560) within 15 min. All reagents were prepared according to a previously reported protocol.
For histological analysis of the lung sections, fixed lungs (see above) were embedded in paraffin, sectioned and stained with hematoxylin-eosin (H&E), Masson's trichrome or F3 (anti-mouse FRβ antibody). Tissue sections were examined in a blinded manner by a licensed pathologist. More than 90×10^6 cells were quantified per section using Aperio-Image Scope (Leica Biosystems, Wetzlar, DE).
For this, BM-treated mice were intravenously injected every other day beginning on day 10 with either vehicle (3% DMSO in PBS) or Compound 1B (see FIG. 8A). […] In BM-induced experimental pulmonary fibrosis in mice, inflammation is known to persist for about 9-10 days after BM installation. Because, inflammation to fibrosis switch happens in this model approximately day 9 to day 14, and anti-inflammatory markers start appearing at about day 10, dosing began on day 10 (FIG. 8A).
Two doses were given every other day till day 21. The individual doses on a day are separated by 6 hours to prevent any “tolerance” to TLR agonists. Mice were then sacrificed on day 21 and subjected immediately to bronchoalveolar lavage followed by resection of the lungs for immunohistochemistry and quantitation of collagen and hydroxyproline.

[3] = tested on: FRβ-expressing macrophages; test: In vivo folate imaging with OTL38, resected organs; design: species or system C57BL/6 mice
Method: (§1) To evaluate if anti-inflammatory lung macrophages in these mice can be specifically targeted with folate-linked drugs, 10 days after the instillation, 10 nmol (for in vivo imaging) or 100 nmol (for in vivo labeling) of a folate-linked, near infrared fluorescent dye (OTL38) with or without 200-fold excess of FA-glucosamine (a competitor of OTL38) was injected into the tail veins of BM-treated mice and the dye uptake in the major organs was evaluated.
(§2) Finally, for the in vivo folate imaging studies, major organs (heart, lung, spleen, liver, small intestine, large intestine, and kidney) were resected and imaged using an AMI live imager (Spectral Instruments Imaging, Tucson, AZ). For in vivo folate receptor labeling studies, lungs of the mice were harvested immediately following euthanasia, digested with a lung dissociation kit (Miltenyi Biotec, Bergisch Gladbach, DE; #130-098-427) as described by gentleMACS Octo Dissociator with Heathers (Miltenyi Biotec, Bergisch Gladbach, DE; #130-096-427) as described by manual and filtered through a 70 μm cell strainer (Miltenyi Biotec, Bergisch Gladbach, DE: #130-098-462). Cells collected in the filtrate were depleted of erythrocytes by ammonium sulfate lysis, washed 2× in cold PBS and labeled for 30 min on ice with antibodies to desired macrophage markers (FITC-CD11b, Biolegend, San Diego, CA; #101205; FE-F4/80. Biolegend. San Diego, CA: #123109). Labeled macrophages were then washed twice in PBS, stained with 7AAD (viability stain) for 15 min and analyzed by flow cytometry using BD Accuri C6 Software (BD Biosciences, San Jose, CA).
FIGS. 7C and 7D show FRβ IHC staining of human IPF lung tissue (FIG. 7C) and healthy human lung tissue (FIG. 7D). […] After 2 hours, mice were sacrificed prior to analysis. […] For in vivo folate receptor labeling studies, lungs of the mice were harvested immediately following euthanasia, digested and then labeled with antibodies to desired macrophages markers (FITC-CD11b, PE-F4/80) and 7AAD (live/dead staining) and analyzed by flow cytometry.

FRβ positive macrophages = test: In vivo folate receptor labeling with OTL38, flow cytometry of digested lungs; design: species or system C57BL/6 mice; settings: fibrotic mice
Method: as §1
as §2, with “Cells collected in the filtrate were depleted of erythrocytes by ammonium sulfate lysis, washed 2× in cold PBS and labeled for 30 min on ice with antibodies to desired macrophage markers (FITC-CD11b, Biolegend, San Diego, CA; #101205; FE-F4/80. Biolegend. San Diego, CA: #123109).” left out, “CA). […]” for “CA).”

Compound	CCL18 relative expression [1]	CD206 relative expression [1]	IL-1β relative expression [1]	secretion of CCL18 protein [2]	reduction of anti-inflammatory markers relative to the other compounds [1]	also measured
Nc1nc2ncc(CNc3ccc(C(=O)NC(CCC(=O)N[C@@H](CSSCCOC(=O)OCC4CCCN(CCNc5ccc(Cn6c(=O)[nH]c7c(N)nc(C(F)(F)F)cc76)cn5)C4)C(=O)O)C(=O)O)cc3)nc2c(=O)[nH]1 (stereo partly drawn) [Compound 3B]	reduced	reduced	reduced	downregulated		
Nc1nc2ncc(CNc3ccc(C(=O)N[C@@H](CCC(=O)NCCOCCOCCOCCOCCOCCOCCOCCOCCOCCOCCOCCOCCOCC4CCCN(CCNc5ccc(Cn6c(=O)[nH]c7c(N)nc(C(F)(F)F)cc76)cn5)C4)C(=O)O)cc3)nc2c(=O)[nH]1 (stereo partly drawn) [Compound 3C]	reduced	reduced	reduced	downregulated	most effective	benefit to the subject mice (BM-induced mice; 3 nmol dosage): did not show measurable benefit; hydroxyproline (HP) (BM-induced mice; 10 nmol dosage): decreasing; number of BALF cells (BM-induced mice; 10 nmol dosage): decreasing; survival rates (BM-induced mice; 10 nmol dosage): increased the survival rates
OTL38						OTL38 accumulation in organs ([3]; BM-treated mice, day 10, 10 nmol tail vein, 2 h): pronounced accumulation in the fibrotic lungs; lung accumulation under competition ([3]; BM-treated mice, with 200-fold excess folate-glucosamine): nearly quantitative blockade of lung accumulation; OTL38 fluorescence in organs ([3]; healthy mice, 10 nmol tail vein, 2 h): only observed in the kidneys of healthy mice; macrophage-like cells with folate-targeted dye retention (FRβ positive macrophages; 100 nmol OTL38): about 22%; folate-dye retention under competition (FRβ positive macrophages; 100 nmol OTL38 with 200-fold excess folate-glucosamine): blocked essentially all folate-dye retention
Nc1nc(C(F)(F)F)cc2c1[nH]c(=O)n2Cc1ccc(NCCN2CCCC(CO)C2)nc1 (stereo not drawn) [Compound 3A]				downregulated		
Nc1nc2ncc(CNc3ccc(C(=O)N[C@@H](CCC(=O)NCCOCCOCCOCCOCC4CCCN(CCNc5ccc(Cn6c(=O)[nH]c7c(N)nc(C(F)(F)F)cc76)cn5)C4)C(=O)O)cc3)nc2c(=O)[nH]1 (stereo partly drawn) [Compound 3D]	reduced	reduced	reduced	downregulated	most effective	
